Structures can show the parent of a compound that is named as a salt.
Tests used:
[1] = Sodium fluorescein permeability across epithelial-endothelial co-culture; assay type: in vitro ADME; settings: human
[2] = tested on: primary human neutrophils; experiment: Neutrophil transmigration to chemoattractant or sample in 96-well co-culture, counted by flow cytometry; assay type: cell-based; settings: for number of counted transmigrated neutrophils versus chemoattractant dose: 3 healthy donors, 16 hours, two-way ANOVA p<0.0001
HUVEC = experiment: Tolerance of HUVEC to puromycin in routine culture; assay type: cell-based, human; settings: long time periods; unpublished observation
Description: HUVEC maintenance in T-75 flasks. Primary Human Umbilical Vein Endothelial Cells were employed from ATCC (ATCC® PCS-100-013™) and expanded according to manufacturer instructions in Vascular Cell Basal Medium (ATCC® PCS-100-030™) supplemented with Endothelial Cell Growth Kit-VEGF (ATCC® PCS-100-041™) with added Penicillin-Streptomycin (Gibco™ 15140148) diluted 1:100 v:v. HUVECs were transduced to constitutively express RFP. […] Cells were passaged at 60-80% confluence according to manufacturer instructions, counted with Nexcelcom Cellometer Auto T4 Bright Field Cell Counter (Nexcelcom Bioscience) using Trypan Blue viability stain, and used below the passage 10 since expanding from ATCC.
Lentiviral transduction. H441 cells and HUVECs were transduced with lentivirus to constitutively express GFP and RFP, respectively. H441 cells were seeded in T-75 flasks at 0.75e6 cells/75 cm^2 and allowed to attach overnight. Then H441 cells were inoculated with GFP gene-bearing lentivirus with puromycin resistance (Brand, product #). Lentivirus (8 TU/cell) was suspended in H441 routine culture media with the addition of transfection reagent polybrene ([…]). The cells were inoculated overnight and then allowed to recover in routine cell culture media for 72 hours with media changes every 48 hours. […]

[3] = tested on: endothelium of H441-HUVEC co-culture; experiment: IL-8 on the endothelial side of the H441/HUVEC co-culture (ELISA); assay type: cell-based, human; settings: 24-hour exposure on the epithelial side
Procedure: Then, IL-8 produced on the endothelial side was measured by ELISA (R&D Systems). […] Statistics were performed in GraphPad Prism 9.
Cytokine quantitation. Cell culture supernatants were collected at specified intervals. IL-6 and IL-8 were quantified with ELISA assays according to manufacturer instructions (Human IL-6 DuoSet ELISA, R&D Systems DY206-05; Human IL-8/CXCL8 DuoSet ELISA, R&D Systems, DY208-05; DuoSet ELISA Ancillary Reagent Kit 2, R&D Systems; DY008.

[4] = tested on: endothelium of H441-HUVEC co-culture; experiment: Endothelial von Willebrand factor release after epithelial exposure; assay type: cell-based, human; settings: epithelial side exposed for 10 minutes
Procedure: Staining and imaging. All stains used reagents from ThermoFisher's Image-iT™ Fixation/Permeabilization Kit (R37602) for washing, fixing, blocking, and permeabilization. For all stains, inserts were cut out and fixed on glass slides for 10 minutes at 37° C. For stains requiring permeabilization, the inserts were incubated with 0.5% Triton X (ImageIT kit) for 5 minutes at 37° C. All inserts were blocked for 1 hour at 37° C., counterstained with DAPI (1:1000 in PBS for 5 minutes) and mounted between two coverslips with ProLong™ Diamond Antifade Mountant (Invitrogen). F-actin. After fixation, permeabilization, and blocking, inserts were incubated for 1 hour at 37° C. in Alexa Fluor™ 647 Phalloidin (Invitrogen) diluted 1:20 from stock solution in 1% BSA (Image-iT™). ZO-1/e-cadherin co-stain. After fixation, permeabilization, and blocking, the primary antibodies (ZO-1 Rabbit anti-human polyclonal antibody, ThermoFisher 61-7300, 1:200; e-cadherin Mouse anti-human monoclonal antibody, ThermoFisher 13-1700, 1:2000) were suspended together in 1% BSA (Image-It Kit) and co-incubated with the inserts for 2 hours at 37° C. The secondary antibodies (Goat anti-Rabbit IgG, Alexa Fluor 405, Abcam ab 175665, 1:200; Goat anti-mouse IgG, Alexa Fluor 647, ThermoFisher A32728, 1:500) were suspended in 1% BSA and incubated with the filters for 2 hours at 37° C. […]

Compound: O=C1OC2(c3ccc(O)cc3Oc3cc(O)ccc32)c2ccccc21 [NaFL, Fluorescein sodium salt]
- Papp at 2 h, 30 µM ([1]; H441/HUVEC co-culture at ALI, S.D. 1.63e-5 cm/s, 95% CI 1.53e-6-1.25e-5 cm/s): 70.4 nm/s
- Papp at 3 h, 30 µM ([1]; control, no exposure, at ALI, over a 3-hour period, n=4, read-out: permeability of the control bilayer co-culture): 70.4 nm/s

Compound: CCCCC/C=C\C[C@@H](O)/C=C/C=C/C=C\[C@@H](O)CCCC(=O)O [LTB4, leukotriene B4]
- number of counted transmigrated neutrophils versus chemoattractant dose [2]: effect of chemoattractant dose

Compound: IL-8: recombinant human protein IL-8 (HEK-expressed, activity tested), chemoattractant
- number of counted transmigrated neutrophils versus chemoattractant dose [2]: effect of chemoattractant dose
- neutrophil transmigration numbers versus concentration ([2]; 18 hour transmigration time): increase

Compound: COc1ccc(C[C@H](N)C(=O)N[C@H]2[C@@H](O)[C@H](n3cnc4c(N(C)C)ncnc43)O[C@@H]2CO)cc1 [puromycin]
- tolerance by HUVEC in routine culture medium (HUVEC): did not tolerate it well for long time periods

Compound: polyinosinic:polycytidylic acid [poly(I:C)]
- endothelial release of IL-8 [3]: weakly dose-dependent
- endothelial von Willebrand factor (VWF) exocytosis [4]: immediately exocytosed von Willebrand factor

— US20240118267A1, “CELL CULTURE GROWTH APPARATUS AND METHOD OF UNDERSIDE ATTACHMENT TO A SURFACE USING CELL SEEDING” (Georgia Tech Research Corporation, priority 2021, published 2024)
